Data: US9040533B2, “Oxime-substituted-quinoxaline-type piperidine compounds as ORL-1 modulators” (priority 2012, dated 2015)
pIC50: −log10 of the molar value.

How the values were obtained:
Assay in all cases: biochemical
[1] = molecular target: T1, CYP1A2 (Homo sapiens, UniProt P05177)
T1 sequence (P05177 1-516): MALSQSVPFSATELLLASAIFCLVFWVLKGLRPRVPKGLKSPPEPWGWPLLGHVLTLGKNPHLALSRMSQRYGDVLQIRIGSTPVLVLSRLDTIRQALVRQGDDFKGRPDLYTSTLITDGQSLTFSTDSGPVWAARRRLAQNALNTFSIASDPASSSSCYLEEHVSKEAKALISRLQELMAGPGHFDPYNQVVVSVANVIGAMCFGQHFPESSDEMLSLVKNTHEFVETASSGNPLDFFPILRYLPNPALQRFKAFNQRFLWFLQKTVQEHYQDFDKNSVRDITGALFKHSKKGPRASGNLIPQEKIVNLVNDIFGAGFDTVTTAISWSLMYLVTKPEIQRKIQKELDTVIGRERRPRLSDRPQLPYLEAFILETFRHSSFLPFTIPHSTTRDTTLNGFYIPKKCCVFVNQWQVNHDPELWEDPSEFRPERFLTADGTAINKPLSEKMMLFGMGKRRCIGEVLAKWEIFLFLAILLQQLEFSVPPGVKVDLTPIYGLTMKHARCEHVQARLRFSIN

[2] = molecular target: CYP2C9 (Homo sapiens, UniProt P11712)
[3] = molecular target: CYP2C19 (Homo sapiens, UniProt P33261)
[4] = molecular target: CYP2D6 (Homo sapiens, UniProt P10635)
[5] = molecular target: CYP3A4 (Homo sapiens, UniProt P08684)

Measured: pIC50

CYP2C19, sequence (P33261 whole entry): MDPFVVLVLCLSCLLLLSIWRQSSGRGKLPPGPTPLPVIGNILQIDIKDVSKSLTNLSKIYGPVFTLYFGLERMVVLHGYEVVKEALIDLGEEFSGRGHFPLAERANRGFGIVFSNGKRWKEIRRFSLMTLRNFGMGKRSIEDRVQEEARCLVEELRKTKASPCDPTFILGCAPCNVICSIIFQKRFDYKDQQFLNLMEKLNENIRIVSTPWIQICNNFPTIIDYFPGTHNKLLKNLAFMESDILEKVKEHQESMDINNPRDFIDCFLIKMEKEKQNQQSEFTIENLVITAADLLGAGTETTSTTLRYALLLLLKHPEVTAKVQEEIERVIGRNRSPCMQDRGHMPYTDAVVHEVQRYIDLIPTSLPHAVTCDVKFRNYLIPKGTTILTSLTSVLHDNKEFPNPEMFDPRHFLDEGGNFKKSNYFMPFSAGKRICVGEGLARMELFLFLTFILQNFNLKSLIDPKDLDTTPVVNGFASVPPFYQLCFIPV
CYP3A4, sequence (P08684 whole entry): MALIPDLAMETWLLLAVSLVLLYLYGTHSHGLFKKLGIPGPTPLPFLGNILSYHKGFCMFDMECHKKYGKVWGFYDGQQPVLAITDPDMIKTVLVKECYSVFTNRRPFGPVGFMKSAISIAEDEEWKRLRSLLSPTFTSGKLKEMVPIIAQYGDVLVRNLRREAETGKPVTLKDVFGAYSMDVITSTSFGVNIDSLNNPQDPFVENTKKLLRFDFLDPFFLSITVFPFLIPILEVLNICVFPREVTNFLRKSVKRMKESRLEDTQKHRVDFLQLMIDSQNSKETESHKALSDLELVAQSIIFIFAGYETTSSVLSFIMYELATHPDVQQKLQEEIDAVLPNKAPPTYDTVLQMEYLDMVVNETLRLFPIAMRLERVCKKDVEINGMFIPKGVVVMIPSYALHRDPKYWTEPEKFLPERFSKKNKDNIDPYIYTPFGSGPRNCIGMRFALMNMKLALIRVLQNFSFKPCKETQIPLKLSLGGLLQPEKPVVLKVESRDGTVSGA
CYP2D6, sequence (P10635 whole entry): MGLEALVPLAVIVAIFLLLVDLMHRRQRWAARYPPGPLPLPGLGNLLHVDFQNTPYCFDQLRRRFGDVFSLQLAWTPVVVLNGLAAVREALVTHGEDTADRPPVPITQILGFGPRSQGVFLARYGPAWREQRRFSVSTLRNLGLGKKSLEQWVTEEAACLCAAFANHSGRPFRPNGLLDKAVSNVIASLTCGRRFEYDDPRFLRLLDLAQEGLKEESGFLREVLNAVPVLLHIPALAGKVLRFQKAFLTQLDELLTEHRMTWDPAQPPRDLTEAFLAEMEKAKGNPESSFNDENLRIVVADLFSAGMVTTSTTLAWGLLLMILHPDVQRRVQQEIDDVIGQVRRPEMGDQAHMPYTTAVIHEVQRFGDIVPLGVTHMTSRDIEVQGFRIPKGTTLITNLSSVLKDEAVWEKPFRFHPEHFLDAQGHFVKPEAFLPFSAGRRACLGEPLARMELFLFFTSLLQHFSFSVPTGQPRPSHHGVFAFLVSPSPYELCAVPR
CYP2C9, sequence (P11712 whole entry): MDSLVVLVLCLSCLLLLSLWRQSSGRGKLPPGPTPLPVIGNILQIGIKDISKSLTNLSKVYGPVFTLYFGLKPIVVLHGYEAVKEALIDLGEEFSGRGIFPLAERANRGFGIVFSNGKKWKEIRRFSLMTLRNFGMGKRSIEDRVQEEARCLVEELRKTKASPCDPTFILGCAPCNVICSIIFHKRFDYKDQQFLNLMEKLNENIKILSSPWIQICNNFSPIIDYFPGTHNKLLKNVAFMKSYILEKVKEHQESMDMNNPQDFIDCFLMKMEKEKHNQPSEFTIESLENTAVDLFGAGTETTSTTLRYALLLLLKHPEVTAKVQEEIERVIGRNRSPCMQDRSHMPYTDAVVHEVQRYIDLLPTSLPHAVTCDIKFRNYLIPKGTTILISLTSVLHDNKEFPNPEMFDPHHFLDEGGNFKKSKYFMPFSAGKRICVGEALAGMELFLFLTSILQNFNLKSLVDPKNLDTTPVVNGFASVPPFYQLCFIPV

NC(=O)CO/N=C(\CCC(=O)O)c1nc2ccccc2n([C@H]2C[C@H]3CCC[C@@H](C2)N3C2CC3CCCCC(C3)C2)c1=O (stereo partly drawn) [Compound 41, (E)-4-(2-amino-2-oxoethoxyimino)-4-(4-((1R,3R)-9-(bicyclo[4.3.1]decan-8-yl)-9-azabicyclo[3.3.1]nonan-3-yl)-3-oxo-3,4-dihydroquinoxalin-2-yl)butanoic acid]
< 4.70: all assays above

NC(=O)CO/N=C(\C(=O)O)c1nc2ccccc2n([C@H]2C[C@H]3CCC[C@@H](C2)N3C2CC3CCCCC(C3)C2)c1=O (stereo partly drawn) [Compound 45, (Z)-2-(2-amino-2-oxoethoxyimino)-2-(4-((1R,3R)-9-(bicyclo[4.3.1]decan-8-yl)-9-azabicyclo[3.3.1]nonan-3-yl)-3-oxo-3,4-dihydroquinoxalin-2-yl)acetic acid]
< 4.70: all assays above

CN(C)C(=O)CON=C(C(=O)O)c1nc2ccccc2n([C@H]2C[C@H]3CCC[C@@H](C2)N3C2CC3CCCC(C3)C2)c1=O (stereo partly drawn) [Compound 63]
< 4.70: all assays above

O=C(O)CCC(=NOCCO)c1nc2ccccc2n([C@H]2C[C@H]3CCC[C@@H](C2)N3C2CC3CCCC(C3)C2)c1=O (stereo partly drawn) [Compound 3, 4-[4-((1R,3R)—(S)-9-Bicyclo[3.3.1]non-3-yl-9-aza-bicyclo[3.3.1]non-3-yl)-3-oxo-3,4-dihydro-quinoxalin-2-yl]-4-(2-hydroxy-ethoxyimino)-butyric acid]
< 4.70: all assays above

CC(=NOCC(=O)O)c1nc2ccccc2n(C2CC3CCC(C2)N3C2CC3CCCCC(C3)C2)c1=O (stereo not drawn) [Compound 22]
< 4.70: all assays above

CNC(=O)CON=C(C(=O)O)c1nc2ccccc2n([C@H]2C[C@H]3CCC[C@@H](C2)N3C2CC3CCCC(C3)C2)c1=O (stereo partly drawn) [Compound 64]
< 4.70: all assays above

CCON=C(C(=O)O)c1nc2ccccc2n([C@H]2C[C@H]3CC[C@@H](C2)N3C2CC3CCCCC(C3)C2)c1=O (stereo partly drawn) [Compound 36]
< 4.70: all assays above

CNC(=O)CCC(=NOCC(=O)O)c1nc2ccccc2n([C@H]2C[C@H]3CCC[C@@H](C2)N3C2CC3CCCC(C3)C2)c1=O (stereo partly drawn) [Compound 42, 2-(((1-(4-((1R,1′R,3r,3′R,5S,5′S)-[3,9′-bi(9′-azabicyclo[3.3.1]nonan)]-3′-yl)-3-oxo-3,4-dihydroquinoxalin-2-yl)-4-(methylamino)-4-oxobutylidene)amino)oxy)acetic acid]
< 4.70: all assays above

O=C(O)C(=NOCCO)c1nc2ccccc2n([C@H]2C[C@H]3CC[C@@H](C2)N3C2CC3CCCCC(C3)C2)c1=O (stereo partly drawn) [Compound 19]
< 4.70: all assays above

CCO/N=C(\CCC(=O)O)c1nc2ccccc2n([C@H]2C[C@H]3CCC[C@@H](C2)N3C2CC3CCCC(C3)C2)c1=O (stereo partly drawn) [Compound 11, 4-[4-((1R,3R,7S)-9-bicyclo[3.3.1]non-3-yl-9-aza-bicyclo[3.3.1]non-3-yl)-3-oxo-3,4-dihydro-quinoxalin-2-yl]-4-ethoxyimino-butyric acid]
< 4.70: all assays above

NC(=O)C(=NOCC(=O)O)c1nc2ccccc2n([C@H]2C[C@H]3CCC[C@@H](C2)N3C2CC3CCCCC(C3)C2)c1=O (stereo partly drawn) [Compound 55]
< 4.70: all assays above

NC(=O)CO/N=C(\C(=O)O)c1nc2ccccc2n([C@H]2C[C@H]3CC[C@@H](C2)N3C2CC3CCCCC(C3)C2)c1=O (stereo partly drawn) [Compound 60]
< 4.70: all assays above

COCCO/N=C(\C(=O)O)c1nc2ccccc2n([C@H]2C[C@H]3CCC[C@@H](C2)N3C2CC3CCCC(C3)C2)c1=O (stereo partly drawn) [Compound 49]
< 4.70: all assays above

CCON=C(C(=O)O)c1nc2ccccc2n([C@H]2C[C@H]3CCC[C@@H](C2)N3C2CC3CCCCC(C3)C2)c1=O (stereo partly drawn) [Compound 32, 2-(4-((1R,3R)-9-(bicyclo[4.3.1]decan-8-yl)-9-azabicyclo[3.3.1]nonan-3-yl)-3-oxo-3,4-dihydroquinoxalin-2-yl)-2-(ethoxyimino)acetic acid]
< 4.70: all assays above

CNC(=O)CCC(=NOCC(=O)O)c1nc2ccccc2n([C@H]2C[C@H]3CCC[C@@H](C2)N3C2CC3CCCCC(C3)C2)c1=O (stereo partly drawn) [Compound 58]
< 4.70: all assays above

CON=C(C(=O)O)c1nc2ccccc2n([C@H]2C[C@H]3COC[C@@H](C2)N3C2CC3CCCCC(C3)C2)c1=O (stereo partly drawn) [Compound 50, [4-((1R,5S,7S)-(1S,6R,8R)-9-bicyclo[4.3.1]dec-8-yl-3-oxa-9-aza-bicyclo[3.3.1]non-7-yl)-3-oxo-3,4-dihydro-quinoxalin-2-yl]-methoxyimino-acetic acid]
< 4.70: all assays above

O=C(O)CCC(=NO)c1nc2ccccc2n([C@H]2C[C@H]3CCC[C@@H](C2)N3C2CCCCCCCCC2)c1=O [Compound 18]
< 4.70: all assays above

O=C(O)/C(=N\OCCO)c1nc2ccccc2n([C@H]2C[C@H]3CCC[C@@H](C2)N3C2CC3CCCC(C3)C2)c1=O (stereo partly drawn) [Compound 4]
< 4.70: all assays above

CC(C)C(O/N=C(\C(=O)O)c1nc2ccccc2n([C@H]2C[C@H]3CCC[C@@H](C2)N3C2CC3CCCC(C3)C2)c1=O)C(N)=O (stereo partly drawn) [Compound 53]
< 4.70: all assays above

CC(C)(O/N=C(\C(=O)O)c1nc2ccccc2n([C@H]2C[C@H]3CC[C@@H](C2)N3C2CC3CCCCC(C3)C2)c1=O)C(N)=O (stereo partly drawn) [Compound 61]
< 4.70: all assays above

CC(C)O/N=C(\C(=O)O)c1nc2ccccc2n([C@H]2C[C@H]3CCC[C@@H](C2)N3C2CC3CCCCC(C3)C2)c1=O (stereo partly drawn) [Compound 33, 2-(4-((1R,3R)-9-(bicyclo[4.3.1]decan-8-yl)-9-azabicyclo[3.3.1]nonan-3-yl)-3-oxo-3,4-dihydroquinoxalin-2-yl)-2-(isopropoxyimino)acetic acid]
< 4.70: all assays above
